Tests used:
[1] = tested on: HeLa cells; assay: MTT assay of cell viability / anti-proliferative activity; format: cell-based
[2] = tested on: HeLa cells; assay: Mitochondrial membrane potential with JC-10 dye; conditions: 20 μM

| Compound | inhibitor concentration at which maximum inhibition was reached ([1]; HeLa cells) [µM] | maximum inhibition in HeLa cell viability ([1]; at saturating concentrations) | increase of F520/F590 ratio above the normal value [2] |
| --- | --- | --- | --- |
| COC1=C2C[C@@H](C)C[C@H](OC)[C@H](O)[C@@H](C)/C=C(\C)[C@H](OC(N)=O)[C@@H](OC)/C=C\C=C(/C)C(=O)NC(=CC1=O)C2=O [GA, Geldanamycin] | 0.3 | ~ 40% | – |
| p-trifluoromethoxy carbonyl cyanide phenyl hydrazone [FCCP] | – | – | up to 7 fold |
